Measurements: the Deep4Chem optical property database
“And” between values parts separate entries of the source, which are not always exact repeats. Identical values can stand only once.

Test: photoluminescence quantum yield (fraction); solvent given as SMILES
[1] = in O=P(c1ccccc1)(c1ccccc1)c1ccccc1Oc1ccccc1P(=O)(c1ccccc1)c1ccccc1

Question: For `CCc1cc(CC)cc(-n2c3ccccc3c3cc4c(cc32)c2ccccc2n4-c2cc(CC)cc(CC)c2)c1`, which photoluminescence quantum yield (in ClC(Cl)Cl) is on record?
Answer: 0.14

Question: Which photoluminescence quantum yield (in O) does the source give for `Cc1ccccc1C1=C2C=CC(=[N+](C)C)C=[C]2[Ge]([CH3])([CH3])[c]2cc(N(C)C)ccc21` here?
Answer: 0.34

Question: With `CCCN1/C(=C/C=C(/C=C/C2=[N+](CCC)c3ccccc3C2(C)C)c2cc[n+](C)cc2)C(C)(C)c2ccccc21` as the compound, how does the photoluminescence quantum yield (in CO) read?
Answer: 0.14

Question: And the photoluminescence quantum yield (in CS(C)=O)?
Answer: 0.12

Question: What about the photoluminescence quantum yield (in O) of the same compound?
Answer: 0.02

Question: Which photoluminescence quantum yield (in ClCCl) does the source give for `CC1=C(C)c2cccc3c2c(cc2nc4ccccc4nc23)O1` here?
Answer: 0.41

Question: For `Clc1ccccc1-c1nc2sc3ccccc3c2s1`, which photoluminescence quantum yield (in CS(C)=O) is on record?
Answer: 0.48

Question: Which photoluminescence quantum yield (in ClC(Cl)Cl) does the source give for `CCCCCCCCCCCCOc1cc2c3c(ccc4c5c(N6CCOCC6)cc6c7c(ccc(c1c34)c75)C(=O)N(C1CCCCC1)C6=O)C(=O)N(C1CCCCC1)C2=O` here?
Answer: 0.067

Question: Which photoluminescence quantum yield (in CCO) does the source give for `N#Cc1ccc(-c2ccc(C3=CCCCC3)s2)s1` here?
Answer: 0.06

Question: With `COc1ccc(/C=C/C2=CC(/C=C/c3ccc(OC)cc3)=[O+][B-](OC(C)=O)(OC(C)=O)O2)cc1` as the compound, how does the photoluminescence quantum yield (in C1CCOC1) read?
Answer: 0.95

Question: What about the photoluminescence quantum yield (in CC#N) of the same compound?
Answer: 0.85

Question: What about the photoluminescence quantum yield (in CC(C)=O) of the same compound?
Answer: 0.88

Question: What about the photoluminescence quantum yield (in CS(C)=O) of the same compound?
Answer: 0.83

Question: What about the photoluminescence quantum yield (in Cc1ccccc1) of the same compound?
Answer: 0.98

Question: What about the photoluminescence quantum yield (in ClC(Cl)Cl) of the same compound?
Answer: 0.91

Question: What about the photoluminescence quantum yield (in ClCCl) of the same compound?
Answer: 0.92

Question: Which photoluminescence quantum yield (in ClCCl) does the source give for `C(=C\c1ncnc2ccccc12)/c1ccc(N(c2ccccc2)c2ccccc2)cc1` here?
Answer: 0.25

Question: For `CCCN1c2ccccc2Sc2cc(/C=C\c3cc(=O)oc4ccc(C)cc34)ccc21`, which photoluminescence quantum yield (in ClC(Cl)Cl) is on record?
Answer: 0.76

Question: What does the source list for `CCNc1cc2oc(=O)c3c(=O)oc4ccccc4c3c2cc1C`?
Answer: photoluminescence quantum yield (in CS(C)=O): 0.27; photoluminescence quantum yield (in ClCCl): 0.84

Question: For `C(=C\c1cc(-c2ccccc2)c(/C=C/c2ccc(N(c3ccccc3)c3ccccc3)cc2)cc1-c1ccccc1)/c1ccc(N(c2ccccc2)c2ccccc2)cc1`, which photoluminescence quantum yield (in ClCCl) is on record?
Answer: 0.8

Question: With `COc1ccccc1-c1nc(-c2ccccc2)c(-c2ccccc2)[nH]1` as the compound, how does the photoluminescence quantum yield (in CO) read?
Answer: 0.29

Question: Which photoluminescence quantum yield (in C1CCOC1) does the source give for `C(=C1c2ccccc2-c2ccccc21)c1ccc(-c2ccc(C=C3c4ccccc4-c4ccccc43)cc2)cc1` here?
Answer: 0.0015

Question: Which photoluminescence quantum yield (in ClC(Cl)Cl) does the source give for `FC(F)(F)c1ccc(-c2nc(-c3ccc(C(F)(F)F)cc3)n3ccccc23)cc1` here?
Answer: 0.16

Question: Which photoluminescence quantum yield (in CC#N) does the source give for `Fc1ccc(-[c+]2c3ccccc3sc3ccccc32)cc1` here?
Answer: 0.018

Question: Which photoluminescence quantum yield (in Cc1ccccc1) does the source give for `COC(=O)/C(C#N)=c1\s/c(=c2/s/c(=C(/C#N)C(=O)OC)c3cc(-c4ccc5c(c4)C(C)(C)c4ccccc4-5)sc23)c2sc(-c3ccc4c(c3)C(C)(C)c3ccccc3-4)cc12` here?
Answer: 0.531

Question: With `N#C/C(=C\c1ccc(C#N)cc1)c1nc(-c2ccccc2)c(-c2ccccc2)s1` as the compound, how does the photoluminescence quantum yield (in CC#N) read?
Answer: 0.101

Question: With `CCCCCCc1ccc(/C=C/c2ccc(CCCCCC)s2)s1` as the compound, how does the photoluminescence quantum yield (in Cc1ccccc1) read?
Answer: 0.051

Question: Which photoluminescence quantum yield (in ClCCl) does the source give for `C(#Cc1cccc(C#Cc2ccc(-n3c4ccccc4c4ccccc43)cc2)c1)c1ccc(-n2c3ccccc3c3ccccc32)cc1` here?
Answer: 0.8

Question: Which photoluminescence quantum yield (in C1CCCCC1) does the source give for `c1ccc2ccccc2c1` here?
Answer: 0.23 and 0.42

Question: With `N#Cc1ccc(-c2nc(-c3ccccc3)c(-c3ccccc3)[nH]2)cc1` as the compound, how does the photoluminescence quantum yield (in CO) read?
Answer: 0.52

Question: Which photoluminescence quantum yield (in ClCCl) does the source give for `CC1=NN(c2cccc3ccccc23)[B-](F)(F)[n+]2ccccc21` here?
Answer: 0.07

Question: What does the source list for `CC(=O)c1ccc(/C=C/C=C/C2=NC3C(=O)NC(N)=NC3N2[C@H]2C[C@H](O)[C@@H](CO)O2)cc1` (stereo partly drawn)?
Answer: photoluminescence quantum yield (in C1COCCO1): 0.59; photoluminescence quantum yield (in CC#N): 0.57; photoluminescence quantum yield (in CO): 0.015

Question: For `COC(=O)c1nc2cnc(N)nc2n1Cc1ccccc1`, which photoluminescence quantum yield (in C1COCCO1) is on record?
Answer: 0.64

Question: What about the photoluminescence quantum yield (in CC#N) of the same compound?
Answer: 0.55

Question: And the photoluminescence quantum yield (in CO)?
Answer: 0.87

Question: What about the photoluminescence quantum yield (in ClCCl) of the same compound?
Answer: 0.42

Question: And the photoluminescence quantum yield (in O)?
Answer: 0.95

Question: Which photoluminescence quantum yield [1] does the source give for `CC(C)(C)c1ccc2c(c1)c1cc(C(C)(C)C)ccc1n2-c1ccccc1-c1nc(-c2ccccc2-n2c3ccc(C(C)(C)C)cc3c3cc(C(C)(C)C)ccc32)nc(-c2ccccc2P(=O)(c2ccccc2)c2ccccc2)n1` here?
Answer: 0.45

Question: Which photoluminescence quantum yield (in Cc1ccccc1) does the source give for `CC1(C)c2ccccc2N(c2ccc3c(c2)Oc2ccccc2S3(=O)=O)c2ccccc21` here?
Answer: 0.48

Question: And the photoluminescence quantum yield [1]?
Answer: 0.98

Question: For `CN(C)c1ccc(C2=CC3=C(c4ccc(C=O)cc4)[C@H]4c5ccccc5[C@]3(S2)c2ccccc24)cc1`, which photoluminescence quantum yield (in ClCCl) is on record?
Answer: 0.46

Question: What does the source list for `COc1ccc2n1[B-](F)(F)[N+]1=C(c3ccccc3)C=CC1=C2c1ccc(C)cc1`?
Answer: photoluminescence quantum yield (in C1CCCCC1): 0.28; photoluminescence quantum yield (in C1CCOC1): 0.3; photoluminescence quantum yield (in C1COCCO1): 0.36; photoluminescence quantum yield (in CCOC(C)=O): 0.28; photoluminescence quantum yield (in CO): 0.23; photoluminescence quantum yield (in Cc1ccccc1): 0.51; photoluminescence quantum yield (in ClC(Cl)Cl): 0.38

Question: What does the source list for `CN(C)c1ccc(C2=[N+]3C(=Nc4c(-c5ccc(O)cc5)cc(-c5ccc(N(C)C)cc5)n4[B-]3(F)F)C(c3ccc(O)cc3)=C2)cc1`?
Answer: photoluminescence quantum yield (in C1CCOC1): 0.04; photoluminescence quantum yield (in Cc1ccccc1): 0.1

Question: For `CN(C)c1ccc(-c2c(/C=C3/C=Cc4ccccc4N3Cc3ccccc3)c(=O)c2=O)cc1`, which photoluminescence quantum yield (in C1CCCCC1) is on record?
Answer: 0.0146

Question: What about the photoluminescence quantum yield (in Cc1ccccc1) of the same compound?
Answer: 0.0141

Question: What about the photoluminescence quantum yield (in ClCCl) of the same compound?
Answer: 0.001

Question: Which photoluminescence quantum yield (in C1CCOC1) does the source give for `C[Si](C)(C)C#CC1=CC2=c3cc(C#C[Si](C)(C)C)c4nc(C(F)(F)C(F)(F)C(F)(F)F)nc5c(C#C[Si](C)(C)C)cc(c3c54)C3=CC(C#C[Si](C)(C)C)=C4N=C(C(F)(F)C(F)(F)C(F)(F)F)N=C1C4C32` (stereo not drawn) here?
Answer: 0.45

Question: Which photoluminescence quantum yield (in CCO) does the source give for `COc1cc(OC)cc(C(=O)OCc2c(C)c(=O)n3c(=O)c(C)c(C)n23)c1` here?
Answer: 0.638

Question: With `C=Cc1cc2ccc(OC)cc2oc1=O` as the compound, how does the photoluminescence quantum yield (in CC#N) read?
Answer: 0.99

Question: Which photoluminescence quantum yield (in CCCCCC) does the source give for `Cc1cc(C)c(B(c2cc3c4c(c(B(c5c(C)cc(C)cc5C)c5c(C)cc(C)cc5C)cc5c4c2CCC5)CCC3)c2c(C)cc(C)cc2C)c(C)c1` here?
Answer: 0.9

Question: Which photoluminescence quantum yield (in ClCCl) does the source give for `CCCCn1c(-c2ccc(-c3nnc(-c4ccccc4)o3)cc2)nc2c3ccccc3c3ccccc3c21` here?
Answer: 0.61

Question: For `O=C1c2ccc(N(c3ccc(-c4ccccc4)cc3)c3ccc(-c4ccccc4)cc3)cc2C(=O)c2ccc(N(c3ccc(-c4ccccc4)cc3)c3ccc(-c4ccccc4)cc3)cc21`, which photoluminescence quantum yield (in Cc1ccccc1) is on record?
Answer: 0.1

Question: And the photoluminescence quantum yield (in c1ccc2c(c1)c1ccccc1n2-c1ccc(-c2ccc(-n3c4ccccc4c4ccccc43)cc2)cc1)?
Answer: 0.42
